{"source": "paper PMC10449621", "about": "“Engineering cellular communication between light-activated synthetic cells and bacteria” (Nature Chemical Biology, 2023)", "test_system": "BjaRWT (B0033|ATG) receiver cells", "assay": "BjaR receiver cell AHSL dose-response (gfp reporter, plate reader)", "format": "cell-based, E. coli XL10-Gold", "note": "Several values for one entry are separate records, joined by “and”; a condition that tells them apart may be missing. Equal entries are not always repeated.", "data": [{"compound": "CC(C)CC(=O)N[C@H]1CCOC1=O", "note": "[IV-HSL, N-isovaleryl-L-homoserine lactone]", "values": [{"measurement": "EC50", "setting": "Escherichia coli, IV-HSL-activated gfp expression", "value": "3.93 ± 0.38", "unit": "nM"}, {"measurement": "hill coefficient", "setting": "IV-HSL dose-response curve", "value": 1.38}, {"measurement": "GFP", "setting": "Log([ASHL]) -6.5", "value": "47248 and 37500"}, {"measurement": "Mean normalised fluorescence", "setting": "Log([ASHL]) -6.5", "value": 200159}, {"measurement": "Normalised fluorescence", "setting": "Log([ASHL]) -6.5", "value": "212521 and 200332 and 187623"}, {"measurement": "Mean normalised fluorescence", "setting": "Log([ASHL]) -6.5, sheet 3e", "value": 184419}, {"measurement": "Mean normalised fluorescence", "setting": "Log([ASHL]) -6.5, sheet 3d", "value": 198983}, {"measurement": "Normalised fluorescence", "setting": "Log([ASHL]) -6.5, sheet 3d, Expt1-3", "value": "211719 and 182929"}, {"measurement": "GFP", "setting": "Log([ASHL]) -7", "value": "45353 and 37555"}, {"measurement": "Mean normalised fluorescence", "setting": "Log([ASHL]) -7", "value": 189629}, {"measurement": "Normalised fluorescence", "setting": "Log([ASHL]) -7", "value": "198623 and 195600 and 174664"}, {"measurement": "Mean normalised fluorescence", "setting": "Log([ASHL]) -7, sheet 3e", "value": 176709}, {"measurement": "Mean normalised fluorescence", "setting": "Log([ASHL]) -7, sheet 3d", "value": 188606}, {"measurement": "Normalised fluorescence", "setting": "Log([ASHL]) -7, sheet 3d, Expt1-3", "value": "197885 and 170457"}, {"measurement": "GFP", "setting": "Log([ASHL]) -7.5", "value": "45933 and 37587 and 40718"}, {"measurement": "Mean normalised fluorescence", "setting": "Log([ASHL]) -7.5", "value": 182276}, {"measurement": "Normalised fluorescence", "setting": "Log([ASHL]) -7.5", "value": "179523 and 192948 and 174359"}, {"measurement": "Mean normalised fluorescence", "setting": "Log([ASHL]) -7.5, sheet 3e", "value": 170191}, {"measurement": "Mean normalised fluorescence", "setting": "Log([ASHL]) -7.5, sheet 3d", "value": 181297}, {"measurement": "Normalised fluorescence", "setting": "Log([ASHL]) -7.5, sheet 3d, Expt1-3", "value": "178915 and 170205 and 194772"}, {"measurement": "GFP", "setting": "Log([ASHL]) -8", "value": "37611 and 40673"}, {"measurement": "Mean normalised fluorescence", "setting": "Log([ASHL]) -8", "value": 167362}, {"measurement": "Normalised fluorescence", "setting": "Log([ASHL]) -8", "value": "183805 and 164832 and 153451"}, {"measurement": "Mean normalised fluorescence", "setting": "Log([ASHL]) -8, sheet 3e", "value": 154256}, {"measurement": "Mean normalised fluorescence", "setting": "Log([ASHL]) -8, sheet 3d", "value": 166513}, {"measurement": "Normalised fluorescence", "setting": "Log([ASHL]) -8, sheet 3d, Expt1-3", "value": "161111 and 185459"}, {"measurement": "GFP", "setting": "Log([ASHL]) -8.5", "value": "37118 and 36825"}, {"measurement": "Mean normalised fluorescence", "setting": "Log([ASHL]) -8.5", "value": 127411}, {"measurement": "Normalised fluorescence", "setting": "Log([ASHL]) -8.5", "value": "156949 and 139152 and 86132.6"}, {"measurement": "Mean normalised fluorescence", "setting": "Log([ASHL]) -8.5, sheet 3e", "value": 106537}, {"measurement": "Mean normalised fluorescence", "setting": "Log([ASHL]) -8.5, sheet 3d", "value": 126734}, {"measurement": "Normalised fluorescence", "setting": "Log([ASHL]) -8.5, sheet 3d, Expt1-3", "value": "136219 and 158173"}, {"measurement": "Mean normalised fluorescence", "setting": "Log([ASHL]) -9", "value": 62693.3}, {"measurement": "Mean normalised fluorescence", "setting": "Log([ASHL]) -9, sheet 3e", "value": 40066}, {"measurement": "Mean normalised fluorescence", "setting": "Log([ASHL]) -9, sheet 3d", "value": 62287.6}, {"measurement": "Mean normalised fluorescence", "setting": "Log([ASHL]) -9.5", "value": 17191.4}, {"measurement": "Mean normalised fluorescence", "setting": "Log([ASHL]) -9.5, sheet 3e", "value": 9895.56}, {"measurement": "Mean normalised fluorescence", "setting": "Log([ASHL]) -9.5, sheet 3d", "value": 17095.5}, {"measurement": "Mean normalised fluorescence", "setting": "Log([ASHL]) -10", "value": 3897.48}, {"measurement": "Mean normalised fluorescence", "setting": "Log([ASHL]) -10, sheet 3e", "value": 2635.87}, {"measurement": "Mean normalised fluorescence", "setting": "Log([ASHL]) -10, sheet 3d", "value": 3848.29}, {"measurement": "GFP", "setting": "Log([ASHL]) -10.5", "value": "559 and 459"}, {"measurement": "Mean normalised fluorescence", "setting": "Log([ASHL]) -10.5", "value": 1658.33}, {"measurement": "Normalised fluorescence", "setting": "Log([ASHL]) -10.5", "value": "2009.19 and 1558.44 and 1407.36"}, {"measurement": "Mean normalised fluorescence", "setting": "Log([ASHL]) -10.5, sheet 3e", "value": 1317.17}, {"measurement": "Mean normalised fluorescence", "setting": "Log([ASHL]) -10.5, sheet 3d", "value": 1623.48}, {"measurement": "Normalised fluorescence", "setting": "Log([ASHL]) -10.5, sheet 3d, Expt1-3", "value": "1531.14 and 2041.25"}, {"measurement": "GFP", "setting": "Log([ASHL]) -11", "value": "433 and 333 and 432"}, {"measurement": "Mean normalised fluorescence", "setting": "Log([ASHL]) -11", "value": 1322.92}, {"measurement": "Normalised fluorescence", "setting": "Log([ASHL]) -11", "value": "1515.8 and 1009.39 and 1443.57"}, {"measurement": "Mean normalised fluorescence", "setting": "Log([ASHL]) -11, sheet 3e", "value": 1095.36}, {"measurement": "Mean normalised fluorescence", "setting": "Log([ASHL]) -11, sheet 3d", "value": 1289.12}, {"measurement": "Normalised fluorescence", "setting": "Log([ASHL]) -11, sheet 3d, Expt1-3", "value": "995.025 and 1544.75 and 1327.6"}, {"measurement": "GFP", "setting": "Log([ASHL]) -11.5", "value": "418 and 424 and 326"}, {"measurement": "Mean normalised fluorescence", "setting": "Log([ASHL]) -11.5", "value": 1299.42}, {"measurement": "Normalised fluorescence", "setting": "Log([ASHL]) -11.5", "value": "1462.99 and 1426.41 and 1008.84"}, {"measurement": "Mean normalised fluorescence", "setting": "Log([ASHL]) -11.5, sheet 3e", "value": 1097.76}, {"measurement": "Mean normalised fluorescence", "setting": "Log([ASHL]) -11.5, sheet 3d", "value": 1265.1}, {"measurement": "Normalised fluorescence", "setting": "Log([ASHL]) -11.5, sheet 3d, Expt1-3", "value": "994.106 and 1309.43 and 1491.76"}]}]}
